# Assay results from patent US12329738B2, “Urolithin A and a composition containing same for external use in inflammations of various etiologies” (WARSZAWSKI UNIWERSYTET MEDYCZNY, priority 2018, dated 2025).
# System: TNF-alpha
# Assay: TNF-alpha production by THP-1 derived macrophages (ELISA)
# Format: cell-based, human
# Settings: 40 μM; LPS stimulation; FIG. 13
# Method: Monocytes of the THP-1 line were cultured in RPMI 1640 medium supplemented with 10% FBS and 2 mM glutamine. For transformation of monocytes into macrophages, the cells were treated with 12.5 ng/mL PMA (phorbol 12-myristate 13-acetate) for 48 hours, then washed and incubated for 24 hours in a culture medium without PMA. After this time, urolithin A, urolithin B, iso-urolithin A and the corresponding glucuronides (GUA, GUB and GiUA) were added to the cells at a concentration of 40 μM. After 1 hour of incubation with the compounds, the cells were stimulated with LPS from Escherichia coli (10 ng/mL).
# To assess the level of TNF-alpha production, the cells were incubated for 6 hours, to assess the expression of mRNA for TNF-alpha, the cells were incubated for 24 hours, to assess the effect on ERK1/2 phosphorylation, the cells were incubated for 35 minutes.
# The level of TNF-alpha in the culture medium was determined using the immunochemical ELISA method (BD biosciences). Evaluation of the expression of mRNA for TNF-alpha was performed using real time PCR. After 24 hours of incubation, RNA was isolated using NucleoSpin RNA Clean-up (Macherey-Nagel). The amount and quality of isolated RNA was determined using 2100 Bioanalyzer (Agilent Technologies). The expression level of mRNA for TNF-α was determined using Brilliant II SYBR Green QPCR Kit and Aria Mx Real-Time PCR thermocycler (Agilent Technologies). The following were used as primers for TNF-alpha: forward: 5′-[…]-3′, reverse: 5′-[…]-3′. Beta-actin (ACTB) was used as the housekeeping gene; primer forward: 5′-[…]-3′, reverse: 5′-[…]-3′).
# The obtained results of experiments on in vitro models were analyzed using the Statistica 13 program (StatSoft, Inc., Tulsa, OK, USA) and presented as mean values±SEM. Statistical significance was set at P≤0.05. The results with established normal distribution in the D'Agostin and Pearson test were prepared using analysis of variance (ANOVA). Parametric post-hoc analysis was performed using Dunnett's test.
compound,measurement,value
O=c1oc2cc(O)ccc2c2ccc(O)cc12 [urolithin A],TNF-alpha production by THP-1 derived macrophages,inhibition of pro-inflammatory cytokine TNF-alpha production
